Data: the kinase profiling compilation of Christmann-Franck et al. (2016)

How the values were obtained:
Assay in all cases: KINOMEscan competition binding
Details in all cases: compound 10.0 µM
MAPK11 (human) = MAPK11 (human) (UniProt Q15759)
[1] = system: ABL1 (human), P00519 [Q252H]
[2] = target: JAK1 JH1 catalytic (human) (UniProt P23458)
MYO3B (human) = MYO3B (human) (UniProt Q8WXR4)
[3] = system: KIT (human), P10721 [V559D/T670I]
LTK (human) = LTK (human) (UniProt P29376)
FGFR2 (human) = FGFR2 (human) (UniProt P21802)
MAP3K3 (human) = MAP3K3 (human) (UniProt Q99759)
RAF1 (human) = RAF1 (human) (UniProt P04049)
RAF1 (human), sequence (P04049 whole entry, looked up): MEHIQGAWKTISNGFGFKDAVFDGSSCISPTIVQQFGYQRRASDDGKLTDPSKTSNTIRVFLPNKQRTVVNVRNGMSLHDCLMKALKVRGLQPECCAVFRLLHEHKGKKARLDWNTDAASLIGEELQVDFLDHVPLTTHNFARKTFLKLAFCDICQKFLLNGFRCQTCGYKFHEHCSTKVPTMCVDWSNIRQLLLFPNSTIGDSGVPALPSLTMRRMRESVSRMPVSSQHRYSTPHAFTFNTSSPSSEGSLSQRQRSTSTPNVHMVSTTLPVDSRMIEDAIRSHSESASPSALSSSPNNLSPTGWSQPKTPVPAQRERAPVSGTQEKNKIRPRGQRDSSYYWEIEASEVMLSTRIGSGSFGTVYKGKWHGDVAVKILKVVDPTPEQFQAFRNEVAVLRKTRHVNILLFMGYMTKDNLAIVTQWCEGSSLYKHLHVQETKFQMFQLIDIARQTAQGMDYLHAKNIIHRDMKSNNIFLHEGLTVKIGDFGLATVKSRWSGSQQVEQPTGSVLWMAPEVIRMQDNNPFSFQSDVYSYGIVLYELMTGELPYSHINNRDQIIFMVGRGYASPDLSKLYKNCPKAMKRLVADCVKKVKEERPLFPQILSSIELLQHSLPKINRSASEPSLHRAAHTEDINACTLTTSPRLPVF

[4] = target: JAK3 JH1 catalytic (human) (UniProt P52333)
JAK3 JH1 catalytic (human), sequence (P52333 whole entry, looked up): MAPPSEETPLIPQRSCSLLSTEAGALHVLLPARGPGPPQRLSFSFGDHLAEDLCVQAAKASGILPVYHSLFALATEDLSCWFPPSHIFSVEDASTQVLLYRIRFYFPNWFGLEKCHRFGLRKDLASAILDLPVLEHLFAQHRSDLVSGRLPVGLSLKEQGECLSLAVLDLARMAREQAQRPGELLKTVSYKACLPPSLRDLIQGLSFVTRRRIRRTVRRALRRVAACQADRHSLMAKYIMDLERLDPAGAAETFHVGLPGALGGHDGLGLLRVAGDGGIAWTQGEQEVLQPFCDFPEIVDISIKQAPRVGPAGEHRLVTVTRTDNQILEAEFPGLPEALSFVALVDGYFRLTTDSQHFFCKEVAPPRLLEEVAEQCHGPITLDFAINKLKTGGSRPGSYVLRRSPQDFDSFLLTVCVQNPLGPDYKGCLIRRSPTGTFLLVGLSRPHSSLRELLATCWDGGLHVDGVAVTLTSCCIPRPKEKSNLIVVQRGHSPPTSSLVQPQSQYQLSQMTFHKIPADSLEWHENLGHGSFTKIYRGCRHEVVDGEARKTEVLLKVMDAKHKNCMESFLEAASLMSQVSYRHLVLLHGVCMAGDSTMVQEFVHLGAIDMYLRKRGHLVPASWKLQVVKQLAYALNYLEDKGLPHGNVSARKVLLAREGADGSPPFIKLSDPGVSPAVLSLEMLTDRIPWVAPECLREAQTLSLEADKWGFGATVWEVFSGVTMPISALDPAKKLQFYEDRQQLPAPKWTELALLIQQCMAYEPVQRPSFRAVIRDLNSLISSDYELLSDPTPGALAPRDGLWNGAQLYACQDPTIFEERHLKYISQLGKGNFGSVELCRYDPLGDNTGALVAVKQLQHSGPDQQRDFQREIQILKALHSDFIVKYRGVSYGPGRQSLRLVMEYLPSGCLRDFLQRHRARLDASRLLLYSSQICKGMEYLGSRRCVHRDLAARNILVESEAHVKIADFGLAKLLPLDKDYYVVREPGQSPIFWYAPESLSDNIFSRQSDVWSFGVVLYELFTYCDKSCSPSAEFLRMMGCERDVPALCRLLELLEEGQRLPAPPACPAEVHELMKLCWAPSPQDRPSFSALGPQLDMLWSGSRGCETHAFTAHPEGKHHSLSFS

TNNI3K (human) = TNNI3K (human) (UniProt Q59H18)
INSRR (human) = INSRR (human) (UniProt P14616)
FRK (human) = FRK (human) (UniProt P42685)
TXK (human) = TXK (human) (UniProt P42681)
TXK (human), sequence (P42681 whole entry, looked up): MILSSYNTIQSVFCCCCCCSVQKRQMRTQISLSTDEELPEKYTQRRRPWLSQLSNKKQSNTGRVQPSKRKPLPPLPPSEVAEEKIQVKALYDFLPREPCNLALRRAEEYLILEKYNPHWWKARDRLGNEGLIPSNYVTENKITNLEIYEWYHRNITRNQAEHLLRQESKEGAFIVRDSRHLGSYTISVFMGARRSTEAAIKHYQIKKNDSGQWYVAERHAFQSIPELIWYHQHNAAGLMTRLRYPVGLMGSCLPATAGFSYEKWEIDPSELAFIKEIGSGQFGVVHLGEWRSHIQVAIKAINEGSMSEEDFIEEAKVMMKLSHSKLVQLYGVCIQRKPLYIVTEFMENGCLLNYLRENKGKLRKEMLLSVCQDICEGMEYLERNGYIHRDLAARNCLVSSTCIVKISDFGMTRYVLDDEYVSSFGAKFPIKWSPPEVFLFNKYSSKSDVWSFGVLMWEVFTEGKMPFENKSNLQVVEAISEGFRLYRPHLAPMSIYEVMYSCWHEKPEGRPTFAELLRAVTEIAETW

FGR (human) = FGR (human) (UniProt P09769)
[5] = system: FLT3 (human), P36888 [N841I]
INSR (human) = INSR (human) (UniProt P06213)
ANKK1 (human) = ANKK1 (human) (UniProt Q8NFD2)
PTK6 (human) = PTK6 (human) (UniProt Q13882)
PTK6 (human), sequence (Q13882 whole entry, looked up): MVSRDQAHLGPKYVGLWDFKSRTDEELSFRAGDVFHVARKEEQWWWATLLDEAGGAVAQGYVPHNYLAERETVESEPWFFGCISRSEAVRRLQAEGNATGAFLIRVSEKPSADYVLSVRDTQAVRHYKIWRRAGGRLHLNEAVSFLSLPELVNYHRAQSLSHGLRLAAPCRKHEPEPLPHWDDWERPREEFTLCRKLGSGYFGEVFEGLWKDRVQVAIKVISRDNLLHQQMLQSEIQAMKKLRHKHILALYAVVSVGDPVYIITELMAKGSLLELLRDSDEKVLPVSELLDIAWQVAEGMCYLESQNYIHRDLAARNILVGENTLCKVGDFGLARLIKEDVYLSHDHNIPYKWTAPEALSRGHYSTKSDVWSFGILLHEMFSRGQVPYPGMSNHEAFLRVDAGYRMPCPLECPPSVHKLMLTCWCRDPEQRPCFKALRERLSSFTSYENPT

PDGFRA (human) = PDGFRA (human) (UniProt P16234)
EPHA3 (human) = EPHA3 (human) (UniProt P29320)
[6] = target: JAK2 JH1 catalytic (human) (UniProt O60674)
TAOK1 (human) = TAOK1 (human) (UniProt Q7L7X3)
ABL2 (human) = ABL2 (human) (UniProt P42684)
[7] = system: EGFR (human), P00533 [P753S; 747-752 del]
CDK11B (human) = CDK11B (human) (UniProt P21127)
CSF1R (human) = CSF1R (human) (UniProt P07333)
PDGFRB (human) = PDGFRB (human) (UniProt P09619)
PDGFRB (human), sequence (P09619 whole entry, looked up): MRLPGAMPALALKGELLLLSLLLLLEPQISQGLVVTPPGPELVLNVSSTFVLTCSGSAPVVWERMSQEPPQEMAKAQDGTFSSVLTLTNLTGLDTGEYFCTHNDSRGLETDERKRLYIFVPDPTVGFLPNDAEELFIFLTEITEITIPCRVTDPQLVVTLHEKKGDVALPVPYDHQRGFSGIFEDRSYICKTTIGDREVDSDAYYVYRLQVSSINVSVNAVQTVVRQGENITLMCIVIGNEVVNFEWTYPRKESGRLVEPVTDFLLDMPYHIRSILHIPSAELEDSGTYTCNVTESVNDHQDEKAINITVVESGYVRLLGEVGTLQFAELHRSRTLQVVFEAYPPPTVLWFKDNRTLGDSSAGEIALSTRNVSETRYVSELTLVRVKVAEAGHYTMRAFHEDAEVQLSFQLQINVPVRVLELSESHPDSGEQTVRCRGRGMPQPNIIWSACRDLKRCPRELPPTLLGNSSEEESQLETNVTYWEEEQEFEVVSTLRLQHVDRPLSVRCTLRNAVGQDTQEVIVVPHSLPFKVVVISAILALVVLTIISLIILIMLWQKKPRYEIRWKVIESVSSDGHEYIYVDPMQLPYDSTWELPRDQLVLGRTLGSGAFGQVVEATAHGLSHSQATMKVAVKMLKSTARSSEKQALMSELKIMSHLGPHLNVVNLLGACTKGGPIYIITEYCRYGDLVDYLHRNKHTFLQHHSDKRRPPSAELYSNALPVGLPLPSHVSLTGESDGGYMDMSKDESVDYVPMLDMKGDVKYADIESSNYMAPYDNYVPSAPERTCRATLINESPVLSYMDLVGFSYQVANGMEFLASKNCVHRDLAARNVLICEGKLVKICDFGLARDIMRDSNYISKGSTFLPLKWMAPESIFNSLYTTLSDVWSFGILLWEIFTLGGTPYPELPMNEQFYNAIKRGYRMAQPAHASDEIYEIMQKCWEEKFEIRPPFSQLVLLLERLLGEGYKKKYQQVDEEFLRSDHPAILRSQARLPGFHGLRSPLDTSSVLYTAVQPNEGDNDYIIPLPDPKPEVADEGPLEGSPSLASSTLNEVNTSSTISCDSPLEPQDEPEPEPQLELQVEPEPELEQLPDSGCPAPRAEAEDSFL

FYN (human) = FYN (human) (UniProt P06241)
ULK3 (human) = ULK3 (human) (UniProt Q6PHR2)
[8] = system: ABL1 (human), P00519 [F317L]
CDKL2 (human) = CDKL2 (human) (UniProt Q92772)
CDKL2 (human), sequence (Q92772 whole entry, looked up): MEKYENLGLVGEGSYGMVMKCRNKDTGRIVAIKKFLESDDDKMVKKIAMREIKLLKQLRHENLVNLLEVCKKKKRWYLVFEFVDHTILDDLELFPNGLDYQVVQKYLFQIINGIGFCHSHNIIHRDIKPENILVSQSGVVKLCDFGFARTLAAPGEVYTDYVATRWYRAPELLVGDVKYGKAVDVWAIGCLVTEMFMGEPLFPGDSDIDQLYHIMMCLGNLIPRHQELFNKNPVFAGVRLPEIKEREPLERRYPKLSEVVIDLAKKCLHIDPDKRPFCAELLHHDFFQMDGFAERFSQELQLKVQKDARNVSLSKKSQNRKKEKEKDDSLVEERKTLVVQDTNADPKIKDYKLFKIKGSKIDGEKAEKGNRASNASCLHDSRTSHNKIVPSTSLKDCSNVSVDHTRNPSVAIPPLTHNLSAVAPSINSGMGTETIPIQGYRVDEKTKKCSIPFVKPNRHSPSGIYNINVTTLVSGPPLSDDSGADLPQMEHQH

CDK17 (human) = CDK17 (human) (UniProt Q00537)
CDK17 (human), sequence (Q00537 whole entry, looked up): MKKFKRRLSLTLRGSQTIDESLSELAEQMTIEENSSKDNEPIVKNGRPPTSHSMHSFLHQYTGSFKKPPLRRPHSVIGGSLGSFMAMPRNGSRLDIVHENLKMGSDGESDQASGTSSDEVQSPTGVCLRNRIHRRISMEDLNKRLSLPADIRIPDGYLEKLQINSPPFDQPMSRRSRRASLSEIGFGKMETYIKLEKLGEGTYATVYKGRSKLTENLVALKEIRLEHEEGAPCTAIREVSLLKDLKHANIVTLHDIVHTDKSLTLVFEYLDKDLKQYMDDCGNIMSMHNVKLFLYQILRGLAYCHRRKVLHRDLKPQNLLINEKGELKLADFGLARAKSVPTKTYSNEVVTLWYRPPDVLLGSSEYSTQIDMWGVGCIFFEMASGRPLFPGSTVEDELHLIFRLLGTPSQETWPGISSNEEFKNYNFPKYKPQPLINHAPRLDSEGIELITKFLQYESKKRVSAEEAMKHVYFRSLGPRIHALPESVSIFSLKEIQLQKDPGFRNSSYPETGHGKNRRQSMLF

SRMS (human) = SRMS (human) (UniProt Q9H3Y6)
MYO3A (human) = MYO3A (human) (UniProt Q8NEV4)
[9] = system: ABL1 (human), P00519 [T315I]
KDR (human) = KDR (human) (UniProt P35968)
ABL1 (human) = ABL1 (human) (UniProt P00519)
[10] = system: EGFR (human), P00533 [L858R]
CAMKK2 (human) = CAMKK2 (human) (UniProt Q96RR4)
FGFR3 (human) = FGFR3 (human) (UniProt P22607)

CCN1CCN(Cc2ccc(NC(=O)c3ccc(C)c(Oc4ccnc5[nH]ccc45)c3)cc2C(F)(F)F)CC1
kinase still bound, per cent of control (MAPK11 (human)): 0%
kinase still bound, per cent of control [1]: 0.4%
kinase still bound, per cent of control [2]: 11%
kinase still bound, per cent of control (MYO3B (human)): 4.8%
kinase still bound, per cent of control [3]: 0.05%
kinase still bound, per cent of control (LTK (human)): 1.2%
kinase still bound, per cent of control (FGFR2 (human)): 1.4%
kinase still bound, per cent of control (MAP3K3 (human)): 12%
kinase still bound, per cent of control (RAF1 (human)): 7%
kinase still bound, per cent of control [4]: 2.4%
kinase still bound, per cent of control (TNNI3K (human)): 4.8%
kinase still bound, per cent of control (INSRR (human)): 23%
kinase still bound, per cent of control (FRK (human)): 0.7%
kinase still bound, per cent of control (TXK (human)): 12%
kinase still bound, per cent of control (FGR (human)): 1.2%
kinase still bound, per cent of control [5]: 0%
kinase still bound, per cent of control (INSR (human)): 30%
kinase still bound, per cent of control (ANKK1 (human)): 23%
kinase still bound, per cent of control (PTK6 (human)): 28%
kinase still bound, per cent of control (PDGFRA (human)): 0.6%
kinase still bound, per cent of control (EPHA3 (human)): 3.4%
kinase still bound, per cent of control [6]: 11%
kinase still bound, per cent of control (TAOK1 (human)): 3%
kinase still bound, per cent of control (ABL2 (human)): 0.6%
kinase still bound, per cent of control [7]: 1.2%
residual activity (CDK11B (human)): 0.35%
kinase still bound, per cent of control (CSF1R (human)): 0%
kinase still bound, per cent of control (PDGFRB (human)): 0%
kinase still bound, per cent of control (FYN (human)): 1.6%
kinase still bound, per cent of control (ULK3 (human)): 0.1%
kinase still bound, per cent of control [8]: 0.1%
residual activity (CDKL2 (human)): 0.9%
residual activity (CDK17 (human)): 0.1%
kinase still bound, per cent of control (SRMS (human)): 4.6%
kinase still bound, per cent of control (MYO3A (human)): 6.4%
kinase still bound, per cent of control [9]: 0%
kinase still bound, per cent of control (KDR (human)): 1.5%
kinase still bound, per cent of control (ABL1 (human)): 0.1%
kinase still bound, per cent of control [10]: 14%
kinase still bound, per cent of control (CAMKK2 (human)): 28%
kinase still bound, per cent of control (FGFR3 (human)): 9.4%
